Experiment: in vitro
Details: human, hela cells, % viability

| SMILES | viability at 28.5 h, 10 µM [%] |
| --- | --- |
| OCc1ccccc1-c1nccnc1NCCc1cccnc1 [CBK037444] | 94 |
| CC(NC(=O)CCc1cc2n(n1)CCNC2)c1cn2ccsc2n1 (stereo not shown) [CBK306551] | 91.2 |
| Cc1ccccc1Nc1nc(N)nc(CN2CC(C)OC(C)C2)n1 (stereo not shown) [CBK305856] | 105 |
| O=C(Cn1cnc2c(Cl)cc(Cl)cc2c1=O)N1CCCCCC1 [CBK305874] | 92 |
| O=C(O)c1ccccc1N1C(=O)c2ccc(Oc3ccc(Oc4ccc5c(c4)C(=O)N(c4ccccc4C(=O)O)C5=O)cc3)cc2C1=O [CBK261186] | 88.6 |
| O=C(O)Cc1ccc(NC(=O)c2cccnc2C(=O)O)cc1 [CBK267397] | 97.2 |
| O=C(NCCc1c[nH]c2ccccc12)NC(=O)C1CCNCC1 [CBK051094] | 90.2 |
| CC(=O)N1CC[C@H](c2nc3cccc(C(N)=O)c3[nH]2)C1 [CBK289415] | 98.3 |
| O=C(NCc1ccccc1)c1ccc(NC(=O)c2cc(-n3cnnc3)ccc2Cl)cc1 [CBK267896] | 99.2 |
| COc1ccc(CNCc2ccc(Cl)cc2)cc1OC [CBK263315] | 95.4 |
| COc1ccc(-n2cc(-c3ccccc3C(F)(F)F)nn2)cc1OC [CBK112965] | 89.4 |
| CCN(CCCCC1NC(=O)NC1=O)Cc1ccncc1 (stereo not shown) [CBK143967] | 89.1 |
| CCn1ncc(Cn2cc(NC(=O)C3CCCCC3C(=O)O)cn2)c1C (stereo not shown) [CBK286859] | 98.9 |
| O=C(O)C1(c2ccc(Br)cc2)CCCC1 [CBK287134] | 87.3 |
| COc1ccc(NC(=O)c2ccc3nsnc3c2)cc1 [CBK263160] | 92.6 |
| Cn1c(=O)c(-c2nc3ccccc3[nH]2)c(O)c2ccccc21 [CBK027678] | 92.7 |
| CC(=O)N1CCC2(C/C=C/C[C@H]3CN(CCO)CC[C@H]3NC(=O)CNC2=O)CC1 [CBK292139] | 92.8 |
| CN1CCN(C(=O)c2cccc(-c3nccnc3NCc3cccc(Cl)c3)c2)CC1 [CBK037048] | 108 |
| CC(=O)NCCSc1nc2ccccc2nc1N1CCCC1 [CBK103696] | 99 |
| COc1ccc(N2C(=S)N(CC3CCCCC3)[C@H]3[C@H]4OC(=O)[C@H](C[C@H]4O)[C@H]32)cc1 [CBK288939] | 108 |
| Cc1cc(C)n2c(SCc3ccccc3)nnc2n1 [CBK025780] | 82 |
| CCCCCc1nnc(NC(=O)c2cccs2)s1 [CBK058382] | 103 |

| SMILES | viability at 28.5 h, 10 µM [%] |
| --- | --- |
| Cc1ccc2nc(NCCC(=O)O)nc(-c3ccccc3)c2c1 [CBK266537] | 97.4 |
| c1ccc2c(CCN3CCC(Oc4nccnc4OCCN4CCOCC4)CC3)c[nH]c2c1 [CBK082939T] | 88.6 |
| Cc1cc(C(=O)NCc2c(-c3ccccc3)noc2C)n[nH]1 [CBK144076] | 91.4 |
| Cc1cnc2[nH]c(C3CCCN(C(=O)c4cccnc4)C3)cc2c1 (stereo not shown) [CBK285168] | 86.1 |
| COc1ccc([C@@]23CC[C@@H](NC(=O)Nc4cccc(C(F)(F)F)c4F)C[C@@H]2CN(C)C3)cc1OC [CBK063195A] | 98.5 |
| CNC(=O)NC(=O)C1CCN(CCOc2ccccc2)CC1 [CBK034959] | 94.7 |
| O=C(NCCCn1ccnc1)c1ccccc1C(=O)c1ccccc1 [CBK262954] | 93.2 |
| CCC(/C=C1\Oc2ccc(OC)cc2N1C)=C\c1sc2ccccc2[n+]1CCCS(=O)(=O)[O-] [CBK261080] | 90.3 |
| O=S(=O)(Nc1cccc(C(F)(F)F)c1)c1cc2c(N3CCNCC3)nccc2s1 [CBK039085C] | 103 |
| O=C(Nc1ccccc1C(=O)O)c1cccc(S(=O)(=O)NCc2ccccc2)c1 [CBK261258] | 98.1 |
| O=C1S/C(=C/c2ccc(Cl)cc2)C(=O)N1c1ccc(F)cc1 [CBK113265] | 102 |
| COc1ccc(S(=O)(=O)N2CCN(C(=O)c3ccc(C(C)(C)C)cc3)CC2)cc1 [CBK157251] | 111 |
| CC(C)C(NS(=O)(=O)c1ccc2ccccc2c1)C(=O)O (stereo not shown) [CBK286919] | 96.7 |
| CC(C)n1c(=O)c2c(-c3cc(C(C)(C)C)no3)ncn2c2ccccc21 [CBK016666] | 86.6 |
| CC1(C)CC(=O)C=C(C(=O)NCc2ccc3c(c2)OCO3)O1 [CBK153290] | 98.3 |
| COC(=O)c1c(COC(=O)c2cnc(Cl)c(Cl)c2)nc2ccccc2c1C [CBK296940] | 102 |
| O=C(CC1CCN(C(=O)Cc2ccccc2)CC1)NC1(c2ccccc2)CCCC1 [CBK285965] | 101 |
| CNC(=O)CCc1ccccc1NC(=O)NCCSc1ncn[nH]1 [CBK307253] | 89.9 |
| Cc1cnc(NC(=O)Cc2ccc(F)cc2)s1 [CBK288249] | 99.9 |
| CC(=O)Nc1ccccc1NC(=O)COc1ccc(Br)cc1C [CBK265072] | 103 |
| Cc1ccc(CN[C@@H]2COC[C@H]2Cc2cc(C)no2)cc1 [CBK283030] | 106 |
| O=C(C1CCCCC1)N1CCC(n2c(=O)oc3ccccc32)CC1 [CBK284348] | 97.2 |

| SMILES | viability at 28.5 h, 10 µM [%] |
| --- | --- |
| Cc1ccccc1-c1ccccc1CC1(C(=O)N(C)C)CCN(C(=O)C2CC=CCC2)CC1 (stereo not shown) [CBK285733] | 97.2 |
| CN1CCC2(CC1)SC(=O)Nc1ccc(Br)cc12 [CBK017821B] | 100 |
| O=C(Nc1ccc2c(c1)OCCO2)N1CCCCC1CO (stereo not shown) [CBK156178] | 105 |
| O=C(Nc1ccc2cc(Br)cnc2n1)c1ccccc1[N+](=O)[O-] [CBK063253] | 96.8 |
| O=C(Cc1ccc(Br)cc1)N1CCC(Cc2ccccc2)CC1 [CBK058493] | 96.7 |
| Cc1[nH]c(=O)[nH]c(=O)c1CCC(=O)OCc1nccn1Cc1ccccc1 [CBK297939] | 82.1 |
| Cc1c(C)n(C)c2ccc(C(=O)NCCC(=O)N3CCOCC3)cc12 [CBK281669] | 65.8 |
| O=C(C1CCCCC1)N1CC(n2nc(-c3ccccc3)ccc2=O)C1 [CBK284616] | 92.8 |
| CCCCN(CC(N)=O)C(=O)c1sc(COc2ccc(Cl)cc2)nc1C [CBK304539] | 101 |
| O=C1Nc2ccc(Br)cc2C(=O)N2CCN(C(=O)c3ccccc3)C[C@H]12 [CBK289589] | 121 |
| CN(C)CCN1C(=O)C2C3c4ccccc4C([N+](=O)[O-])(c4ccccc43)C2C1=O (stereo not shown) [CBK269286] | 81.4 |
| CC(=O)c1ccc(-c2cnc(N)c(NC3CCCCC3)n2)s1 [CBK063596] | 106 |
| Cc1nnc(SCCn2c(N3CCCCC3)nc3c2c(=O)n(C)c(=O)n3C)s1 [CBK269288] | 103 |
| Cc1nccn1C(C(=O)NCC1(C)COC1)c1ccccc1 (stereo not shown) [CBK281743] | 97.9 |
| c1csc(CNc2cncc(-c3ccncc3)n2)c1 [CBK065238] | 97.3 |
| O=C(O)c1nccnc1-c1ccc(COc2cccc3ccccc23)cc1 [CBK050810] | 95.4 |
| Cc1cc(COc2nc3ccccc3nc2NCCC(C)O)no1 (stereo not shown) [CBK173999] | 95.7 |
| CN(C)C[C@H]1CC[C@]2(CC1)CN(C(=O)C1CC1)Cc1ccccc1O2 [CBK284920] | 101 |
| CS(=O)(=O)c1ccc(-c2ccc(COC3CCN(C(=O)Cc4cccc(C(F)(F)F)c4)CC3)cn2)cc1 [CBK162231T] | 102 |
| O=C(O)c1cccc(NS(=O)(=O)c2ccc(Br)cc2C(F)(F)F)c1 [CBK155724] | 90.9 |
| Cc1ccc(Cc2cnc(NC(=O)CN3CCCCC3)s2)cc1Cl [CBK307299] | 84.9 |
| CCCN1CCN(c2ncnc3scc(C4COc5ccccc5O4)c23)CC1 (stereo not shown) [CBK266590] | 102 |

| SMILES | viability at 28.5 h, 10 µM [%] |
| --- | --- |
| CCOC(=O)CNC(=O)c1cc(Br)c(OC)c(OC)c1 [CBK058454] | 116 |
| O=C1Nc2cc(Cl)ccc2C(=O)N2CC[C@H](NS(=O)(=O)c3cccs3)[C@@H]12 [CBK289341] | 108 |
| O=C(CCCn1ccnc1)Nc1ccc(OC2CCCC2)cc1 [CBK281986] | 92.3 |
| CC1(C(=O)O)CCC(C(=O)O)C1(C)C (stereo not shown) [CBK261830] | 96.1 |
| CCN(Cc1c[nH]nc1-c1ccc(OC)cc1F)CC1CCCO1 (stereo not shown) [CBK307350] | 102 |
| Cc1ccc(S(=O)(=O)NCC(=O)O)cc1[N+](=O)[O-] [CBK034459] | 114 |
| Cc1c[nH]c(CN(C)c2cc([C@H]3C[C@@H](N)C3)nc(N3CCCC3)n2)n1 [CBK306798] | 84.4 |
| COCOc1ccc(-c2nccnc2OC2CCCCC2)cc1 [CBK106917] | 94.3 |
| Cc1ccc(OCc2cccc3nsnc23)cc1[N+](=O)[O-] [CBK266063] | 98.2 |
| Cc1cc(C)n(CCNC(=O)c2ncoc2-c2ccc(F)cc2)n1 [CBK282356] | 83.2 |
| O=C(O)c1cc(N/N=C/c2ccc(-c3ccc(Cl)c(C(=O)O)c3)o2)ccc1Cl [CBK262483] | 88.8 |
| O=C(COc1cc(C(=O)O)nc2ccccc12)NCc1ccc(Cl)cc1 [CBK287247] | 92 |
| COc1ccc([C@@]23CC[C@H](NC(=O)CSc4nccn4C)C[C@@H]2N(C)CC3)cc1OC [CBK036444] | 84.7 |
| COc1cccc(C(=O)NCCC(=O)N2CCN(C)CC2)c1 [CBK304663] | 95.4 |
| NC(=O)C1CCN(c2ncnc3c2oc2ccccc23)CC1 [CBK287789] | 87.6 |
| COc1ccc([C@@]23CC[C@@H](NC(=O)N(C)c4ccc(Cl)cc4)C[C@@H]2N(C)CC3)cc1OC [CBK045682T] | 90.8 |
| Nc1cc(O)nc(SCCN2CCN(c3ccc(C(F)(F)F)cc3[N+](=O)[O-])CC2)n1 [CBK265225] | 88.5 |
| CC(Oc1ccccc1)C(=O)Nc1ccc(C(=O)O)cc1 (stereo not shown) [CBK287154] | 102 |
| O=C(O)CC1C(=O)NCCN1C1Cc2ccccc2C1 (stereo not shown) [CBK270089] | 88.2 |
| O=C(Nc1cccnc1)c1cccc(S(=O)(=O)N2CCCC2)c1 [CBK269846] | 93.3 |
| N#C/C(=C\c1ccc(O)cc1)c1nc(-c2ccc3c(c2)OCO3)cs1 [CBK262370] | 96.8 |
| CC1Cc2cc(C(O)(CCN(C)C)c3ccccc3)ccc2O1 (stereo not shown) [CBK011764] | 110 |

— publication PMC12040169 (PLOS Biology, 2025)
